# Measured values published in patent US9283222B2 (priority 2006, dated 2016).
# Target: Recombinant Human Poly(ADP-Ribose) Polymerase (PARP), PARP-1 (Homo sapiens (Human), UniProt P09874)
# Settings: read-out: PARP-1 (Ki); Table 1; text calls the values EC50s
# Chain of Recombinant Human Poly(ADP-Ribose) Polymerase (PARP), PARP-1 (P09874 whole entry): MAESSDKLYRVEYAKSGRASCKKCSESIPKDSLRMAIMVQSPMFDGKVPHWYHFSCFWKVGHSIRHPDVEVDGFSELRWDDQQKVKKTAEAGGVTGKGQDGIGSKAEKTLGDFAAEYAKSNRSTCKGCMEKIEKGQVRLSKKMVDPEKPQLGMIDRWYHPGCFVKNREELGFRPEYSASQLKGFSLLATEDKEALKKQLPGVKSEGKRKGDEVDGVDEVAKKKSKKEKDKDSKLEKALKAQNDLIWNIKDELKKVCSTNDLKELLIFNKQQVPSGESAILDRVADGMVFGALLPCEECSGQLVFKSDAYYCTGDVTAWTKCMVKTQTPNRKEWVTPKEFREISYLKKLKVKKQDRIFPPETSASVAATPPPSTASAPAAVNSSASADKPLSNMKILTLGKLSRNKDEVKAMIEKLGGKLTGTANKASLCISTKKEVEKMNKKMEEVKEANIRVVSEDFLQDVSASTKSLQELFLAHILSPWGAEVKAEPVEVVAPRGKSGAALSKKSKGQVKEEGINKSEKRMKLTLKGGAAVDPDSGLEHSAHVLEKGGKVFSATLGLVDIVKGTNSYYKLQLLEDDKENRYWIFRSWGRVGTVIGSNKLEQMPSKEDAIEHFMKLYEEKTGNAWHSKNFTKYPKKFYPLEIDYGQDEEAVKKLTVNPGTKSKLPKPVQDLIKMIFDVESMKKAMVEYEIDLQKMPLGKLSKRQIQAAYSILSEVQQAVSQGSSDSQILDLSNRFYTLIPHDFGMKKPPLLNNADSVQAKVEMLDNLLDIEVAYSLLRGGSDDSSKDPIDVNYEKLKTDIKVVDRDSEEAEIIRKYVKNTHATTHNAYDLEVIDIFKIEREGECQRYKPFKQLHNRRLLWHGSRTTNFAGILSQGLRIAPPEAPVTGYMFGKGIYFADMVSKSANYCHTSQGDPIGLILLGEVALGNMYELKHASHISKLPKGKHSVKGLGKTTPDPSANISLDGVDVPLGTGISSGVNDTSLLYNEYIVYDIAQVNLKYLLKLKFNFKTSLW
row,Compound,Ki
1,"CC1CCCN1Cc1cccc(-c2cccc(Cc3n[nH]c(=O)c4c3CCCC4)c2)c1 (stereo not shown) [Example 129, 4-((3′-((2-methylpyrrolidin-1-yl)methyl)-1,1′-biphenyl-3-yl)methyl)-5,6,7,8-tetrahydrophthalazin-1(2H)-one]",41 nM
2,"O=c1[nH]nc(Cc2cccc(-c3cccc(CNC4CC4)c3)c2)c2c1CCCC2 [Example 130, 4-((3′-((cyclopropylamino)methyl)-1,1′-biphenyl-3-yl)methyl)-5,6,7,8-tetrahydrophthalazin-1(2H)-one]",24 nM
3,"O=c1[nH]nc(Cc2cccc(-c3cccc(CNC4CCC4)c3)c2)c2c1CCCC2 [Example 131, 4-((3′-((cyclobutylamino)methyl)-1,1′-biphenyl-3-yl)methyl)-5,6,7,8-tetrahydrophthalazin-1(2H)-one]",32 nM
4,"O=c1[nH]nc(Cc2cc[n+]([O-])c(Br)c2)c2c1CCCC2 [Example 132, 4-((2-bromo-1-oxidopyridin-4-yl)methyl)-5,6,7,8-tetrahydrophthalazin-1(2H)-one]",1040 nM
5,"O=C1CCCN1c1cc(Cc2n[nH]c(=O)c3c2CCCC3)cc[n+]1[O-] [Example 133, 4-((1-oxido-2-(2-oxopyrrolidin-1-yl)pyridin-4-yl)methyl)-5,6,7,8-tetrahydrophthalazin-1(2H)-one]",724 nM
6,"CC1(C(=O)Nc2cccc(Cc3n[nH]c(=O)c4c3CCCC4)c2)CC1 [Example 136, 1-methyl-N-(3-((4-oxo-3,4,5,6,7,8-hexahydrophthalazin-1-yl)methyl)phenyl)cyclopropanecarboxamide]",76 nM
7,"CC1CC1C(=O)Nc1cccc(Cc2n[nH]c(=O)c3c2CCCC3)c1 (stereo not shown) [Example 137, 2-methyl-N-(3-((4-oxo-3,4,5,6,7,8-hexahydrophthalazin-1-yl)methyl)phenyl)cyclopropanecarboxamide]",69 nM
8,"O=C1CC[C@@H](C(=O)Nc2cccc(Cc3n[nH]c(=O)c4c3CCCC4)c2)N1 [Example 139, 5-oxo-N-(3-((4-oxo-3,4,5,6,7,8-hexahydrophthalazin-1-yl)methyl)phenyl)-L-prolinamide]",206 nM
9,"O=C1CC[C@H](C(=O)Nc2cccc(Cc3n[nH]c(=O)c4c3CCCC4)c2)N1 [Example 140, 5-oxo-N-(3-((4-oxo-3,4,5,6,7,8-hexahydrophthalazin-1-yl)methyl)phenyl)-D-prolinamide]",60 nM
10,NC(=O)C1(C(=O)Nc2cccc(Cc3n[nH]c(=O)c4c3CCCC4)c2)CC1 [Example 141],77 nM
11,"CC[C@H](C(=O)Nc1cccc(Cc2n[nH]c(=O)c3c2CCCC3)c1)c1ccccc1 [Example 146, (2S)-N-(3-((4-oxo-3,4,5,6,7,8-hexahydrophthalazin-1-yl)methyl)phenyl)-2-phenylbutanamide]",678 nM
12,"CO[C@@H](C(=O)Nc1cccc(Cc2n[nH]c(=O)c3c2CCCC3)c1)c1ccccc1 [Example 151, (2R)-2-methoxy-N-(3-((4-oxo-3,4,5,6,7,8-hexahydrophthalazin-1-yl)methyl)phenyl)-2-phenylacetamide]",531 nM
13,"CO[C@H](C(=O)Nc1cccc(Cc2n[nH]c(=O)c3c2CCCC3)c1)c1ccccc1 [Example 152, (2S)-2-methoxy-N-(3-((4-oxo-3,4,5,6,7,8-hexahydrophthalazin-1-yl)methyl)phenyl)-2-phenylacetamide]",741 nM
14,"CC(=O)N1CCC(C(=O)Nc2cccc(Cc3n[nH]c(=O)c4c3CCCC4)c2)CC1 [Example 155, 1-acetyl-N-(3-((4-oxo-3,4,5,6,7,8-hexahydrophthalazin-1-yl)methyl)phenyl)piperidine-4-carboxamide]",126 nM
15,CC(=O)N[C@@H](CC(C)C)C(=O)Nc1cccc(Cc2n[nH]c(=O)c3c2CCCC3)c1 [Example 157],124 nM
16,CCCN(CCC)[C@@H](C)C(=O)Nc1cccc(Cc2n[nH]c(=O)c3c2CCCC3)c1 [Example 158],1590 nM
17,"CCC(C)C(C(=O)Nc1cccc(Cc2n[nH]c(=O)c3c2CCCC3)c1)c1ccccc1 (stereo not shown) [Example 170, 3-methyl-N-(3-((4-oxo-3,4,5,6,7,8-hexahydrophthalazin-1-yl)methyl)phenyl)-2-phenylpentanamide]",1700 nM

# Second part, the molecule after the results:
row,Ki,Compound
1,22 nM,"CCOCCC(=O)Nc1cccc(Cc2n[nH]c(=O)c3c2CCCC3)c1 [Example 138, 3-ethoxy-N-(3-((4-oxo-3,4,5,6,7,8-hexahydrophthalazin-1-yl)methyl)phenyl)propanamide]"
2,11 nM,"O=C(COCc1ccccc1)Nc1cccc(Cc2n[nH]c(=O)c3c2CCCC3)c1 [Example 142, 2-(benzyloxy)-N-(3-((4-oxo-3,4,5,6,7,8-hexahydrophthalazin-1-yl)methyl)phenyl)acetamide]"
3,78 nM,"O=C(CCc1ccccc1)Nc1cccc(Cc2n[nH]c(=O)c3c2CCCC3)c1 [Example 143, N-(3-((4-oxo-3,4,5,6,7,8-hexahydrophthalazin-1-yl)methyl)phenyl)-3-phenylpropanamide]"
4,125 nM,"COc1ccc(OC)c(CCC(=O)Nc2cccc(Cc3n[nH]c(=O)c4c3CCCC4)c2)c1 [Example 144, 3-(2,5-dimethoxyphenyl)-N-(3-((4-oxo-3,4,5,6,7,8-hexahydrophthalazin-1-yl)methyl)phenyl)propanamide]"
5,57 nM,"O=C(Nc1cccc(Cc2n[nH]c(=O)c3c2CCCC3)c1)C1(c2ccccc2)CC1 [Example 145, N-(3-((4-oxo-3,4,5,6,7,8-hexahydrophthalazin-1-yl)methyl)phenyl)-1-phenylcyclopropanecarboxamide]"
6,41 nM,"O=C(CCCc1ccccc1)Nc1cccc(Cc2n[nH]c(=O)c3c2CCCC3)c1 [Example 147, N-(3-((4-oxo-3,4,5,6,7,8-hexahydrophthalazin-1-yl)methyl)phenyl)-4-phenylbutanamide]"
7,74 nM,"Cc1cccc(OCC(=O)Nc2cccc(Cc3n[nH]c(=O)c4c3CCCC4)c2)c1 [Example 148, 2-(3-methylphenoxy)-N-(3-((4-oxo-3,4,5,6,7,8-hexahydrophthalazin-1-yl)methyl)phenyl)acetamide]"
8,22 nM,"Cc1ccccc1OCC(=O)Nc1cccc(Cc2n[nH]c(=O)c3c2CCCC3)c1 [Example 149, 2-(2-methylphenoxy)-N-(3-((4-oxo-3,4,5,6,7,8-hexahydrophthalazin-1-yl)methyl)phenyl)acetamide]"
9,16 nM,"Cc1ccc(OCC(=O)Nc2cccc(Cc3n[nH]c(=O)c4c3CCCC4)c2)cc1 [Example 150, 2-(4-methylphenoxy)-N-(3-((4-oxo-3,4,5,6,7,8-hexahydrophthalazin-1-yl)methyl)phenyl)acetamide]"
10,6 nM,"O=C(CCOc1ccccc1)Nc1cccc(Cc2n[nH]c(=O)c3c2CCCC3)c1 [Example 153, N-(3-((4-oxo-3,4,5,6,7,8-hexahydrophthalazin-1-yl)methyl)phenyl)-3-phenoxypropanamide]"
11,56 nM,"O=C(CCCc1cccs1)Nc1cccc(Cc2n[nH]c(=O)c3c2CCCC3)c1 [Example 154, N-(3-((4-oxo-3,4,5,6,7,8-hexahydrophthalazin-1-yl)methyl)phenyl)-4-thien-2-ylbutanamide]"
12,25 nM,"O=C(Cc1cc(F)cc(F)c1)Nc1cccc(Cc2n[nH]c(=O)c3c2CCCC3)c1 [Example 156, 2-(3,5-difluorophenyl)-N-(3-((4-oxo-3,4,5,6,7,8-hexahydrophthalazin-1-yl)methyl)phenyl)acetamide]"
13,11 nM,"O=C(CNC(=O)c1ccccc1)Nc1cccc(Cc2n[nH]c(=O)c3c2CCCC3)c1 [Example 160, N-(2-oxo-2-(3-((4-oxo-3,4,5,6,7,8-hexahydrophthalazin-1-yl)methyl)phenylamino)ethyl)benzamide]"
14,64 nM,"COc1cccc(CCC(=O)Nc2cccc(Cc3n[nH]c(=O)c4c3CCCC4)c2)c1 [Example 161, 3-(3-methoxyphenyl)-N-(3-((4-oxo-3,4,5,6,7,8-hexahydrophthalazin-1-yl)methyl)phenyl)propanamide]"
15,51 nM,"COc1ccc(CCC(=O)Nc2cccc(Cc3n[nH]c(=O)c4c3CCCC4)c2)cc1 [Example 162, 3-(4-methoxyphenyl)-N-(3-((4-oxo-3,4,5,6,7,8-hexahydrophthalazin-1-yl)methyl)phenyl)propanamide]"
16,35 nM,"Cc1ccc(OCC(=O)Nc2cccc(Cc3n[nH]c(=O)c4c3CCCC4)c2)cc1C [Example 163, 2-(3,4-dimethylphenoxy)-N-(3-((4-oxo-3,4,5,6,7,8-hexahydrophthalazin-1-yl)methyl)phenyl)acetamide]"
17,28 nM,"O=C(Nc1cccc(Cc2n[nH]c(=O)c3c2CCCC3)c1)[C@H](O)CCc1ccccc1 [Example 164, (2R)-2-hydroxy-N-(3-((4-oxo-3,4,5,6,7,8-hexahydrophthalazin-1-yl)methyl)phenyl)-4-phenylbutanamide]"
18,14 nM,"O=C(CCCOc1ccccc1)Nc1cccc(Cc2n[nH]c(=O)c3c2CCCC3)c1 [Example 165, N-(3-((4-oxo-3,4,5,6,7,8-hexahydrophthalazin-1-yl)methyl)phenyl)-4-phenoxybutanamide]"
19,5 nM,"O=C(CCC(=O)c1cccs1)Nc1cccc(Cc2n[nH]c(=O)c3c2CCCC3)c1 [Example 166, 4-oxo-N-(3-((4-oxo-3,4,5,6,7,8-hexahydrophthalazin-1-yl)methyl)phenyl)-4-thien-2-ylbutanamide]"
20,56 nM,"Cc1ccnc(SCC(=O)Nc2cccc(Cc3n[nH]c(=O)c4c3CCCC4)c2)n1 [Example 167, 2-((4-methylpyrimidin-2-yl)thio)-N-(3-((4-oxo-3,4,5,6,7,8-hexahydrophthalazin-1-yl)methyl)phenyl)acetamide]"
21,127 nM,"O=C(CCc1ccccc1Cl)Nc1cccc(Cc2n[nH]c(=O)c3c2CCCC3)c1 [Example 168, 3-(2-chlorophenyl)-N-(3-((4-oxo-3,4,5,6,7,8-hexahydrophthalazin-1-yl)methyl)phenyl)propanamide]"
22,99 nM,"O=C(CCc1ccc(Cl)cc1)Nc1cccc(Cc2n[nH]c(=O)c3c2CCCC3)c1 [Example 169, 3-(4-chlorophenyl)-N-(3-((4-oxo-3,4,5,6,7,8-hexahydrophthalazin-1-yl)methyl)phenyl)propanamide]"
23,56 nM,"Cc1cc(Cl)ccc1OCC(=O)Nc1cccc(Cc2n[nH]c(=O)c3c2CCCC3)c1 [Example 171, 2-(4-chloro-2-methylphenoxy)-N-(3-((4-oxo-3,4,5,6,7,8-hexahydrophthalazin-1-yl)methyl)phenyl)acetamide]"
